Results as given in ChEMBL document CHEMBL4483862, “Open-source discovery of chemical leads for next-generation chemoprotective antimalarials” (2018).
pIC50: −log10 of the molar value.

System: Plasmodium berghei
Assay: Luciferase/luciferin-expressing antifolate-resistant parasites were used to infect a culture of HepG2 cells that were pre-incubated with compounds. Infected hepatocytes emit light due to the luciferase reaction. Assay results are presented as the percent inhibition of light emission compared to control. […]
Type: functional
Details: sporozoite; for IC90: read-out: LUCIFERASE INFECTION ASSAY - IC90
[1] = read-out: LUCIFERASE INFECTION ASSAY - IC50

Row | Structure (SMILES) | IC90 [µM] | pIC50 [1] | other results
1 | Cc1cc(C)c(NC(=O)c2cc(C)on2)c(C)c1 | > 10 |  | pIC50 (HEPG2TOX_HILL_SLOPE 17.1, HEPG2TOX_R_SQUARED 0.826, PBLUC_HILL_SLOPE 16.1, PBLUC_R_SQUARED 0.022, read-out: LUCIFERASE INFECTION ASSAY - IC50): 5.01
2 | FC(F)(F)c1ccc2nc(SCc3c(Cl)cccc3Cl)[nH]c2c1 | > 7.98 | < 5.10 | 
3 | CCCCc1[nH]nc2ccnc(-c3ccsc3)c12 | > 10 | < 5.00 | 
4 | Clc1ccc(Sc2ncnc3sccc23)cc1 | > 11.8 | < 4.93 | 
5 | CC(C)c1ccc(NC(=O)CSc2nccc(-c3csc(COc4ccccc4Cl)n3)n2)cc1 | > 6.46 | < 5.19 | 
6 | Cc1ccc2nc(NC(=O)c3cccc(Cl)c3Cl)c(C(=O)NC3CCCC3)n2c1 | > 7.65 | < 5.12 | 
7 | Cc1ccc(N(CC(=O)Nc2ccc(F)cc2F)C2=NC(=O)CS2)cc1 | 9.47 |  | pIC50 (PBLUC_HILL_SLOPE 3.93, PBLUC_R_SQUARED 0.513, read-out: LUCIFERASE INFECTION ASSAY - IC50): 5.27
8 | c1cc(-c2cn3c(-c4ccc5c(c4)OCO5)cnc3cn2)cs1 | > 10.3 |  | pIC50 (PBLUC_HILL_SLOPE 1.82, PBLUC_R_SQUARED 0.105, read-out: LUCIFERASE INFECTION ASSAY - IC50): < 4.99
9 | CSc1ccc(-c2cn3c(-c4cccc(CO)c4)cnc3cn2)cc1 | > 9.5 | < 5.02 | 
10 | Nc1c(C(=O)Nc2cccc(F)c2)sc2nc3c(cc12)N1CCC3CC1 | > 8.96 |  | pIC50 (PBLUC_HILL_SLOPE 1.17, PBLUC_R_SQUARED 0.5, read-out: LUCIFERASE INFECTION ASSAY - IC50): 5.70
11 | CSc1nnc(Sc2nc(-c3cccnc3)nc3ccccc23)s1 | > 10 | < 5.00 | 
12 | COc1ccccc1/C=C(\C#N)c1ccc(C)cc1 | > 13.2 |  | pIC50 (PBLUC_HILL_SLOPE 1.71, PBLUC_R_SQUARED 0.0423, read-out: LUCIFERASE INFECTION ASSAY - IC50): 4.97
13 | CCN1C(=O)N(CCC(C)C)C2(CCN(Cc3ccc4c(c3)Cc3ccccc3-4)CC2)C1=O | > 7.41 |  | pIC50 (HEPG2TOX_HILL_SLOPE 8.09, HEPG2TOX_R_SQUARED 0.945, PBLUC_HILL_SLOPE 9.13, PBLUC_R_SQUARED 0.509, read-out: LUCIFERASE INFECTION ASSAY - IC50): 5.23
14 | Cc1ccc(C)c(Sc2ccc(S(=O)(=O)NCCN(C)C)cc2)c1 | > 10 | < 5.00 | 
15 | Cc1cc2occ(CC(=O)Nc3ccc(N4CCN(C)CC4)nc3)c2cc1C(C)C | > 10 | 5.02 | 
16 | Cc1ccc(-c2nc3c(s2)CN(C(=O)c2ccc4c(c2)OCO4)CC3)cc1 | > 8.72 |  | pIC50 (HEPG2TOX_HILL_SLOPE 8.84, HEPG2TOX_R_SQUARED 0.538, PBLUC_HILL_SLOPE 2.18, PBLUC_R_SQUARED 0.0909, read-out: LUCIFERASE INFECTION ASSAY - IC50): 5.15
17 | Cc1ccc(CSc2nnc(-c3ccccc3N)c(O)n2)cc1 | > 10.2 | < 4.99 | 
18 | FC(F)(F)c1cc(Nc2ncnc3sc(-c4ccccc4)cc23)ccc1Cl | > 10 |  | pIC50 (FFLUC_HILL_SLOPE 9.86, FFLUC_R_SQUARED 0.42, HEPG2TOX_HILL_SLOPE 7.8, HEPG2TOX_R_SQUARED 0.241, read-out: LUCIFERASE INFECTION ASSAY - IC50): < 5.00
19 | Cc1onc(-c2ccc(Cl)cc2Cl)c1-c1csc(N/N=C/c2ccccc2Cl)n1 | > 7.12 |  | pIC50 (FFLUC_HILL_SLOPE 8.51, FFLUC_R_SQUARED 0.488, HEPG2TOX_HILL_SLOPE 2.88, HEPG2TOX_R_SQUARED 0.834, read-out: LUCIFERASE INFECTION ASSAY - IC50): < 5.15
20 | CCCCOc1ccc(/C=N/Nc2ccc([N+](=O)[O-])cc2)cc1 | > 10 | < 5.00 | 
21 | COc1ccc(C(N)=O)c(OCCC23CC4CC(CC(C4)C2)C3)c1 | > 10 |  | pIC50 (PBLUC_HILL_SLOPE 2.6, PBLUC_R_SQUARED 0.547, read-out: LUCIFERASE INFECTION ASSAY - IC50): 5.22
22 | Cc1ccc(NC2=CC(=O)CC(c3ccco3)C2)c(N)c1 (stereo unspecified) | 6.68 |  | pIC50 (HEPG2TOX_HILL_SLOPE 7.93, HEPG2TOX_R_SQUARED 0.791, PBLUC_HILL_SLOPE 1.82, PBLUC_R_SQUARED 0.701, read-out: LUCIFERASE INFECTION ASSAY - IC50): 5.70
23 | O=C1C=CC(=O)N1c1ccc(-c2csnn2)cc1 | > 12.8 |  | pIC50 (FFLUC_HILL_SLOPE 14.6, FFLUC_R_SQUARED 0.441, read-out: LUCIFERASE INFECTION ASSAY - IC50): < 4.89
24 | CCN(CC(=O)Nc1ccccc1C(F)(F)F)C(=O)Cn1c(=O)cnc2ccccc21 | > 10 | < 5.00 | 

Row | Structure (SMILES) | IC90 [µM] | pIC50 [1] | other results
25 | CC(C)c1ccccc1NC(=O)COC(=O)C(C)(C)Oc1ccc(Cl)cc1 | > 10 | < 5.00 | 
26 | CCCOc1ccc2cc(C(=O)c3c(C)[nH]c(C)c3C(=O)OCC)oc2c1 | > 10 |  | pIC50 (HEPG2TOX_HILL_SLOPE 4.85, HEPG2TOX_R_SQUARED 0.69, PBLUC_HILL_SLOPE 11.9, PBLUC_R_SQUARED 0.276, read-out: LUCIFERASE INFECTION ASSAY - IC50): 5.03
27 | Fc1ccc(-c2cc3ncnc(N4CCN(CCN5CCCC5)CC4)c3s2)cc1 | > 10 |  | pIC50 (PBLUC_HILL_SLOPE 17, PBLUC_R_SQUARED 0.345, read-out: LUCIFERASE INFECTION ASSAY - IC50): 5.01
28 | O=C(N/N=C/C1=C(N2CCOCC2)C(=C/c2ccc(Cl)cc2Cl)/CC1)c1ccco1 | 6.76 |  | pIC50 (PBLUC_HILL_SLOPE 1.95, PBLUC_R_SQUARED 0.652, read-out: LUCIFERASE INFECTION ASSAY - IC50): 5.66
29 | CC(C)(C)c1ccc(-c2cnc3cnc(-c4cccnc4)cn23)cc1 | 5.11 |  | pIC50 (PBLUC_HILL_SLOPE 7.55, PBLUC_R_SQUARED 0.755, read-out: LUCIFERASE INFECTION ASSAY - IC50): 5.42
30 | CCCn1c(SCc2ccccc2F)n[nH]c1=O | > 10 | < 5.00 | 
31 | O=C(Nc1ccc(Cl)cc1)Nc1csc([N+](=O)[O-])c1 | 10 |  | pIC50 (HEPG2TOX_HILL_SLOPE 14.4, HEPG2TOX_R_SQUARED 0.942, PBLUC_HILL_SLOPE 1.2, PBLUC_R_SQUARED 0.682, read-out: LUCIFERASE INFECTION ASSAY - IC50): 5.79
32 | Cc1cc(C)c(N/C=C2/C(=O)N(c3ccccc3Cl)C(=O)c3ccccc32)c(C)c1 | > 10 | < 5.00 | 
33 | CCN(c1ccccc1)S(=O)(=O)c1cc(NC(=O)CNCc2ccco2)ccc1Cl | > 10 | < 5.00 | 
34 | CC(C)c1ccc(C(=O)Nc2ccccn2)cc1 | > 13.7 |  | pIC50 (FFLUC_HILL_SLOPE 1.25, FFLUC_R_SQUARED 0.914, PBLUC_HILL_SLOPE 0.406, PBLUC_R_SQUARED 0.482, read-out: LUCIFERASE INFECTION ASSAY - IC50): 5.79
35 | Clc1ccc(CNc2ncc3c(n2)CCN(Cc2ccccc2)C3)cc1Cl | > 8.26 | < 5.08 | 
36 | NS(=O)(=O)c1ccc(CCNC(=O)COC(=O)c2ccc3[nH]c4c(c3c2)CCCC4)cc1 | > 10 | < 5.00 | 
37 | CC(C)CNc1nn2c(-c3ccc(O)cc3)cnc2s1 | > 11.4 | < 4.94 | 
38 | Cc1cccc(-c2cc(C(=O)Nc3cccc(Cl)c3)[nH]n2)c1O | 9.89 |  | pIC50 (HEPG2TOX_HILL_SLOPE 6.46, HEPG2TOX_R_SQUARED 0.463, PBLUC_HILL_SLOPE 41.9, PBLUC_R_SQUARED 0.193, read-out: LUCIFERASE INFECTION ASSAY - IC50): 5.03
39 | Cc1nc2sccn2c1C(=O)NCc1ccccc1Oc1ccccc1 | > 9.08 | < 5.04 | 
40 | COc1ccccc1Oc1ccc(S(=O)(=O)N(c2cccnc2)S(=O)(=O)c2ccc(Oc3ccccc3OC)cc2)cc1 | > 10 | < 5.00 | 
41 | CCOCCCn1c(SCC(=O)N2CCCC3CCCCC32)nc2sc(C)c(C)c2c1=O (stereo unspecified) | > 10 |  | pIC50 (PBLUC_HILL_SLOPE 3.41, PBLUC_R_SQUARED 0.294, read-out: LUCIFERASE INFECTION ASSAY - IC50): 5.15
42 | CCN(CC)c1ccc2cc(/C=N/NC(=O)C34CC5CC(CC(C5)C3)C4)c(=O)oc2c1 | > 10 | < 5.00 | 
43 | c1csc(-c2cn3c(-c4ccc5ncccc5c4)cnc3cn2)c1 | 8.95 |  | pIC50 (HEPG2TOX_HILL_SLOPE 2.44, HEPG2TOX_R_SQUARED 0.922, PBLUC_HILL_SLOPE 1.55, PBLUC_R_SQUARED 0.705, read-out: LUCIFERASE INFECTION ASSAY - IC50): 5.66
44 | O=c1[nH]c2ccccc2c(-c2ccccc2)c1SCc1ccc2c(c1)OCO2 | > 10 |  | pIC50 (FFLUC_HILL_SLOPE 8.09, FFLUC_R_SQUARED 0.216, HEPG2TOX_HILL_SLOPE 4.47, HEPG2TOX_R_SQUARED 0.957, PBLUC_HILL_SLOPE 2.12, PBLUC_R_SQUARED 0.535, read-out: LUCIFERASE INFECTION ASSAY - IC50): 5.36
45 | Cn1nc(-c2ccc(C(=O)Nc3ccccc3)s2)cc1C(F)(F)F | 8.54 |  | pIC50 (HEPG2TOX_HILL_SLOPE 17.1, HEPG2TOX_R_SQUARED 0.873, PBLUC_HILL_SLOPE 3.01, PBLUC_R_SQUARED 0.475, read-out: LUCIFERASE INFECTION ASSAY - IC50): 5.39
46 | Cc1c(C(=O)Nc2nc(CN3CCCC(C)C3)cs2)oc2ccc(Cl)cc12 (stereo unspecified) | > 10 | < 5.00 | 
47 | CC(=O)Nc1cccc(-c2cnc3ccc(-c4cccs4)nn23)c1 | 3.37 |  | pIC50 (HEPG2TOX_HILL_SLOPE 0.814, HEPG2TOX_R_SQUARED 0.982, PBLUC_HILL_SLOPE 1.1, PBLUC_R_SQUARED 0.75, read-out: LUCIFERASE INFECTION ASSAY - IC50): 6.34
48 | C=CCn1c(C)cc(C(=O)CSc2nc3ccccc3o2)c1C | 0.129 |  | pIC50 (HEPG2TOX_HILL_SLOPE 2.02, HEPG2TOX_R_SQUARED 0.572, PBLUC_HILL_SLOPE 43.7, PBLUC_R_SQUARED 0.493, read-out: LUCIFERASE INFECTION ASSAY - IC50): 6.91
